Results as given in US12421225B2, “Heteroaromatic amide derivative and medicament containing the same” (KAKEN PHARMACEUTICAL CO., LTD., priority 2018, dated 2025).
pIC50: −log10 of the molar value.

Tests used:
human Nav1.7 = human Nav1.7 (Homo sapiens (Human), UniProt Q15858); test: Human Nav1.7 inhibitory activity evaluation (automated patch clamp QPatch16X, HEK293A cells stably expressing human Nav1.7 and human Navβ1); type: cell-based
Outline: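 QPatch16X whole-cell recordings at room temperature from HEK293A cells stably expressing human Nav1.7 with Navβ1, CsF-based internal solution, pH 7.4 external, 0.1% DMSO. From −100 mV holding, protocol included a 15 s hold at a potential inactivating ~30-40% of channels; IC50 from inward current at the second −10 mV pulse.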

human Nav1.5 = human Nav1.5 (Homo sapiens (Human), UniProt Q14524); test: Human Nav1.5 inhibitory activity evaluation (automated patch clamp QPatch16X, HEK293 cells stably expressing human Nav1.5); type: cell-based
Chain of human Nav1.5 (Q14524 whole entry): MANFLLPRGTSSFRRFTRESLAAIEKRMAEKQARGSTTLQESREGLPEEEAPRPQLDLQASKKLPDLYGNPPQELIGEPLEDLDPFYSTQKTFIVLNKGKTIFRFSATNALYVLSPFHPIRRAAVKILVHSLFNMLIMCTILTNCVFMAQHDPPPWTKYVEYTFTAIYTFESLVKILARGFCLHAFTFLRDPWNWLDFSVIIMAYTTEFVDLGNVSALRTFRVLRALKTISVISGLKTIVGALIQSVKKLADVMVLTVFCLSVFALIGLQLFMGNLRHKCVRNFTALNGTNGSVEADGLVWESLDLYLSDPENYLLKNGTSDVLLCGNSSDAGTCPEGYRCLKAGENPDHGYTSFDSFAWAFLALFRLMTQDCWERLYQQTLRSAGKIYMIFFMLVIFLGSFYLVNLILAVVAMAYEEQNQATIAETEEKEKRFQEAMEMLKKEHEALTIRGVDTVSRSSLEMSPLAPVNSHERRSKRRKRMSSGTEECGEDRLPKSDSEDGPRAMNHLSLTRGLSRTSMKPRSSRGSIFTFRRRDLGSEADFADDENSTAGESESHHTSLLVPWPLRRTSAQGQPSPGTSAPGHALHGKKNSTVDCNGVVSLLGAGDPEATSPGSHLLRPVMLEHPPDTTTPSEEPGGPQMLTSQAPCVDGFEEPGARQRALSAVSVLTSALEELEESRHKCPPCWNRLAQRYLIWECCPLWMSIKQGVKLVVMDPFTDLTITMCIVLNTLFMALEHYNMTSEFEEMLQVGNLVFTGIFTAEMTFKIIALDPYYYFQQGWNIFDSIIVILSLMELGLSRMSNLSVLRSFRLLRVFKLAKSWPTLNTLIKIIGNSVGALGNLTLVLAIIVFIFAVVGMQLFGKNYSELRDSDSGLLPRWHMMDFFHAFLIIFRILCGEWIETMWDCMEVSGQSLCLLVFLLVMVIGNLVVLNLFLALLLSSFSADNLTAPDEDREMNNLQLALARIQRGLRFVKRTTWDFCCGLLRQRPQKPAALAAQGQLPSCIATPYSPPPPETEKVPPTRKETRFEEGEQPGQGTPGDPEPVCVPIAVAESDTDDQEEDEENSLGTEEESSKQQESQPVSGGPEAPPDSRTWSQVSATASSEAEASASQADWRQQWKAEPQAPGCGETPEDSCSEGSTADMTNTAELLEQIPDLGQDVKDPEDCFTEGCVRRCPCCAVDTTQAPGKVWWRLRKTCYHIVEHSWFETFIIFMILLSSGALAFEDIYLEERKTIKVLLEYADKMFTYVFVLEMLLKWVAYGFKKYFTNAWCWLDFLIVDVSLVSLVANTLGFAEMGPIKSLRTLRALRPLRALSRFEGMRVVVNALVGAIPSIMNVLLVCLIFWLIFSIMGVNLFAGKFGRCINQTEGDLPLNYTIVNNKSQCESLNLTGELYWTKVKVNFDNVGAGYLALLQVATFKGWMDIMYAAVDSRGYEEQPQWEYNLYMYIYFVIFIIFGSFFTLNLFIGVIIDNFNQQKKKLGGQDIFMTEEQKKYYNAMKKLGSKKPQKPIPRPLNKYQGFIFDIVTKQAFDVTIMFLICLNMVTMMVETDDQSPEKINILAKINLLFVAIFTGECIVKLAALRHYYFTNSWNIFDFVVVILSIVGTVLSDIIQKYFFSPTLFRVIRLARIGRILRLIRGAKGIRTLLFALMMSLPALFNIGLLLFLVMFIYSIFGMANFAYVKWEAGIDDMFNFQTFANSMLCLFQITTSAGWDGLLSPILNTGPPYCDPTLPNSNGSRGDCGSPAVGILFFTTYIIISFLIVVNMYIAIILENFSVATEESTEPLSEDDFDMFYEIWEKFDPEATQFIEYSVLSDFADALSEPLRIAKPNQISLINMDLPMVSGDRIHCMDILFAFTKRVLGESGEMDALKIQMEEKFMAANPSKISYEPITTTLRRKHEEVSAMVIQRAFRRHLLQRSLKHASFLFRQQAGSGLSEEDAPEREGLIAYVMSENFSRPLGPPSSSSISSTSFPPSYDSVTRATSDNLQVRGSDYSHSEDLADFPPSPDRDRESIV
Description: Test Example 2: Human Nav1.5 Inhibitory Activity Evaluation
A cell line in which human Nav1.5 was stably expressed in HEK293 cells was used. DMEM supplemeted with 15% fetal bovine serum, 500 μg/ml geneticin, 100 units/ml penicillin, 100 μg/ml streptomycin, 20 mM HEPES was used as culture medium under the conditions of 37° C. and 5% CO2 in T175 flasks to carry out culturing. When 60-80% confluence was reached, a cell suspension of about 0.5-5.0×10^6 cells/mL was prepared. The amount of current through human Nav1.5 was recorded using a fully automatic patch clamp device QPatch16X at room temperature. As the extracellular solution, 145 mM NaCl, 4 mM KCl, 1 mM MgCl2, 2 mM CaCl2, 10 mM Glucose, and 10 mM HEPES at pH 7.4 was used. As the intracellular solution, 135 mM CsF, ⅕ mM EGTA/CsOH, 10 mM HEPES, and 10 mM NaCl at pH 7.3 was used. The test compounds were dissolved in DMSO and diluted with the extracellular solution to attend the DMSO concentration of 0.1% at the time of assay.
The current response was obtained at a sampling frequency of 25 kHz, and noise was removed with a 3 kHz low-pass filter. The holding potential was −80 mV. Correction of the leakage current was carried out by applying a step pulse of −100 mV before the test pulse. In order to investigate human Nav1.5 inhibitory effect of the test compound, test pulses imitating the action potential of cardiomyocytes were continuously given 20 times. The test pulses were given before and after the test compound addition.
The inhibitory activity of the test compound was determined based on the amount of inward current generated by the 20th depolarization pulse, and the 50% inhibitory concentration (IC50) was calculated from the concentration-response curve.

[1] = HEK293A cells stably expressing human Nav1.7 and human Navβ1, automated patch clamp QPatch16X
[2] = HEK293 cells stably expressing human Nav1.5, automated patch clamp QPatch16X
[3] = human Nav1.7, automated patch clamp
[4] = human Nav1.5, automated patch clamp

Chain of human Nav1.7 (Q15858 whole entry): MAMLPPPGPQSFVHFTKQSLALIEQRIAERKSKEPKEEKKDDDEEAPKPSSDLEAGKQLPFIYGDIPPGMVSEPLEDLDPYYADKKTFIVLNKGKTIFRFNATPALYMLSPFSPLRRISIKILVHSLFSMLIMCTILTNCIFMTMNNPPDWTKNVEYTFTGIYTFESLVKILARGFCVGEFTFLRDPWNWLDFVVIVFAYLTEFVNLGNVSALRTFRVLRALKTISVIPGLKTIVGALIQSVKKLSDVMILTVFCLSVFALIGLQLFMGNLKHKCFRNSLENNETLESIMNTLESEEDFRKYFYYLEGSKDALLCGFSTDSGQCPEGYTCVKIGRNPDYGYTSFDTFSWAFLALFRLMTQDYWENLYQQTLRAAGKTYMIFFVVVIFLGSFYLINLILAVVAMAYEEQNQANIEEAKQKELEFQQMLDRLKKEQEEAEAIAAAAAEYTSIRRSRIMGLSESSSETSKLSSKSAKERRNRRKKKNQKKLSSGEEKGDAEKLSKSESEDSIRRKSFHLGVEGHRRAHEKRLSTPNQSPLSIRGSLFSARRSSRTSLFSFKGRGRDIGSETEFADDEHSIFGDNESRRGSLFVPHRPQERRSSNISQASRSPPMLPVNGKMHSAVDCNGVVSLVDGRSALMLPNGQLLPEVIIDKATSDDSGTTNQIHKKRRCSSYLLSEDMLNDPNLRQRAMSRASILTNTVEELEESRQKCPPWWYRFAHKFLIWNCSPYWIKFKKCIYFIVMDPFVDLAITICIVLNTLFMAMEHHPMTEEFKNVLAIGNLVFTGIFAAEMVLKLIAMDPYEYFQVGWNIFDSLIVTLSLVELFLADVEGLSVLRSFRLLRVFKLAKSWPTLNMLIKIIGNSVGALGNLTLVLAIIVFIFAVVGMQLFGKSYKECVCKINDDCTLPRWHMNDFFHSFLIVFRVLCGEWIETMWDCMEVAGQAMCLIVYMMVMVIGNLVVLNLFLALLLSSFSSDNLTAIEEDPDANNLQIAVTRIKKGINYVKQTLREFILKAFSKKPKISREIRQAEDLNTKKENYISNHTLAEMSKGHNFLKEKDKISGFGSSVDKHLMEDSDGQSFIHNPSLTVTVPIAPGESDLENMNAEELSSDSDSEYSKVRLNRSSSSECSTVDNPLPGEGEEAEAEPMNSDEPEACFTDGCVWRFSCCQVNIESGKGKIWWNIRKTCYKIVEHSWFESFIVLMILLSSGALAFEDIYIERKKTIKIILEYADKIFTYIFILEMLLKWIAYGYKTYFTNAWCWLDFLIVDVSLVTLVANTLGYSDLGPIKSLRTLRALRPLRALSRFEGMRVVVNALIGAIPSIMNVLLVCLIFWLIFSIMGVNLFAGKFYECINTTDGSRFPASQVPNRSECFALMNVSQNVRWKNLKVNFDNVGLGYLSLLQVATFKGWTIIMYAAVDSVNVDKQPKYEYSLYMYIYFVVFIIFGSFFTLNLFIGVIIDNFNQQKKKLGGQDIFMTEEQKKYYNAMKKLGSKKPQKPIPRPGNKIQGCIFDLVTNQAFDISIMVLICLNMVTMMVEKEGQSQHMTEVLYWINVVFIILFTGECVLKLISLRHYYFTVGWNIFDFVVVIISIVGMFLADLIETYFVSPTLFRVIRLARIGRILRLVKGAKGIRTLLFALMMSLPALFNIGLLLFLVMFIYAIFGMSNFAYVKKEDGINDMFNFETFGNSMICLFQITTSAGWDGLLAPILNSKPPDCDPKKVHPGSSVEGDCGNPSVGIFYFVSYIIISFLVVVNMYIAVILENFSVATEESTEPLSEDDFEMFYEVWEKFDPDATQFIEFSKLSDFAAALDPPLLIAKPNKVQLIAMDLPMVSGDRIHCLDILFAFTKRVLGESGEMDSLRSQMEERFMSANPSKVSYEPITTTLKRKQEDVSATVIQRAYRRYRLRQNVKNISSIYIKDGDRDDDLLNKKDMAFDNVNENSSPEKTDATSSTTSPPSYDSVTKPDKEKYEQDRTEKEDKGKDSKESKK
Chain of human Nav1.7 (Q07699 19-218 partner): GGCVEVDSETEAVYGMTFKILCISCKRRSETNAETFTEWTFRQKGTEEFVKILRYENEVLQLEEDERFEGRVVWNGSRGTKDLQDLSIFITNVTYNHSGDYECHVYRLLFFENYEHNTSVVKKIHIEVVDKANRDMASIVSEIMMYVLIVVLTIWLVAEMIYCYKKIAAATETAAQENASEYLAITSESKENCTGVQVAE

pIC50 (human Nav1.7; [1])	pIC50 (human Nav1.7; [3])	Structure (SMILES)	pIC50 (human Nav1.5; [2])	pIC50 (human Nav1.5; [4])
> 5.00	–	O=C(N[C@H]1COc2ccccc2C1)c1nc2n(c1Cl)CC(c1ccccc1)CC2 (stereo partly drawn) [Example 25]	5.52 to 6.00	–
> 5.00	–	Cc1ccccc1C1CCn2nc(C(=O)N[C@H]3COc4ccccc4C3)cc2C1 (stereo partly drawn) [Example 68]	≤ 5.52	–
–	> 6.00	O=C(N[C@H]1COc2ccc(COCC(F)(F)F)cc2C1)c1cc2n(n1)CCC(C(F)F)O2 (single isomer, unassigned) [163 (isomer A)]	–	5.52 to 6.00
–	> 6.00	O=C(N[C@H]1COc2ccc(Cl)cc2C1)c1cc2n(n1)CC(CNCC(F)(F)F)O2 (stereo partly drawn) [Example 448]	–	5.52 to 6.00
–	> 5.00	O=C(N[C@H]1COc2ccc(COCC(F)(F)F)cc2C1)c1cc2n(n1)CC(COCC1CC1)O2 (single isomer, unassigned) [186 (isomer A)]	–	≤ 5.52
–	> 6.00	O=C(N[C@H]1COc2ccc(C(F)(F)F)cc2C1)c1nn2c(c1-c1ccn[nH]1)OCCCC2 [Example 258, (R)-3-(1H-pyrazol-5-yl)-N-(6-(trifluoromethyl)chroman-3-yl)-5,6,7,8-tetrahydropyrazolo[5,1-b][1,3]oxazepine-2-carboxamide]	–	> 6.00
–	> 6.00	N#Cc1ccc2c(c1)C[C@@H](NC(=O)c1cc3n(n1)CCC(CCOC(F)F)O3)CO2 (stereo partly drawn) [Example 145]	–	≤ 5.52
–	> 6.00	N#Cc1ccc2c(c1)C[C@@H](NC(=O)c1cc3n(n1)CCN(Cc1ccccc1C(F)(F)F)C3)CO2 [Example 499]	–	5.52 to 6.00
> 6.00	–	CCc1ccc2c(c1)C[C@@H](NC(=O)c1cn3c(n1)CCC(C(F)(F)F)C3)CO2 (stereo partly drawn) [Example 11]	≤ 5.52	–
–	> 6.00	Cc1ccc2c(c1)C[C@@H](NC(=O)c1cc3n(n1)CC(CCNCC(F)(F)F)O3)CO2 (stereo partly drawn) [Example 227]	–	5.52 to 6.00
–	> 6.00	O=C(N[C@H]1COc2ccc(Cl)cc2C1)c1cc2n(n1)CCC(C(F)(F)F)O2 (stereo partly drawn) [Example 169]	–	5.52 to 6.00
> 6.00	–	O=C(N[C@H]1COc2ccc(CC(F)F)cc2C1)c1cc2n(n1)CCC(COC(F)(F)F)O2 (stereo partly drawn) [Example 135]	5.52 to 6.00	–
–	> 6.00	COc1cccc2c1CC(NC(=O)c1cc3n(n1)CCC(c1ccccc1)O3)CO2 (stereo not drawn) [Example 351]	–	≤ 5.52
–	> 6.00	N#Cc1ccc2c(c1)C[C@@H](NC(=O)c1cc3n(n1)CC(CCCOCC(F)F)O3)CO2 (single isomer, unassigned) [604 (isomer A)]	–	5.52 to 6.00
–	> 6.00	O=C(N[C@H]1COc2ccc(C(F)(F)F)cc2C1)c1cc2n(n1)CC(CCNCC(F)(F)F)O2 (stereo partly drawn) [Example 229]	–	5.52 to 6.00
> 6.00	–	CC1(COCC2CCn3nc(C(=O)N[C@H]4COc5ccc(C#N)cc5C4)cc3O2)CC1 (single isomer, unassigned) [113 (isomer B)]	> 6.00	–
–	> 6.00	N#Cc1ccc2c(c1)C[C@@H](NC(=O)c1cc3n(n1)CC(CSCC(F)(F)F)O3)CO2 (single isomer, unassigned) [200 (isomer B)]	–	≤ 5.52
> 5.00	–	O=C(N[C@H]1COc2ccc(C(F)F)cc2C1)c1cn2c(n1)CCC(C(F)(F)F)C2 (stereo partly drawn) [Example 6]	5.52 to 6.00	–
–	> 6.00	O=C(N[C@H]1COc2ccc(CCOC(F)(F)F)cc2C1)c1cc2n(n1)CC(COC(F)F)O2 (stereo partly drawn) [Example 462]	–	≤ 5.52
–	> 6.00	O=C(N[C@H]1COc2ccccc2C1)c1cc2n(n1)CC(c1ccccc1)O2 (stereo partly drawn) [Example 181]	–	≤ 5.52
–	> 6.00	O=C(N[C@H]1COc2ccc(COCC(F)(F)F)cc2C1)c1cc2n(n1)CCN(CCOC1CCC1)C2 [Example 266]	–	≤ 5.52
–	–	O=C(N[C@H]1COc2ccc(COCC(F)(F)F)cc2C1)c1cc2n(n1)CC(CC1CCOCC1)O2 (single isomer, unassigned) [622 (isomer B)]	–	≤ 5.52
> 5.00	–	CN1Cc2nc(C(=O)NCCc3ccccc3)cn2CC1c1ccccc1 (stereo not drawn) [Example 58]	≤ 5.52	–
–	> 6.00	N#Cc1ccc2c(c1)C[C@@H](NC(=O)c1cc3n(n1)CC(CCCOCC(F)(F)F)O3)CO2 (single isomer, unassigned) [246 (isomer B)]	–	≤ 5.52

pIC50 (human Nav1.7; [1])	pIC50 (human Nav1.7; [3])	Structure (SMILES)	pIC50 (human Nav1.5; [2])	pIC50 (human Nav1.5; [4])
–	> 6.00	N#Cc1ccc2c(c1)C[C@@H](NC(=O)c1cc3n(n1)CC(CCCOCC(F)(F)F)O3)CO2 (stereo partly drawn) [Example 245]	–	5.52 to 6.00
> 6.00	–	O=C(N[C@H]1COc2ccc(Cl)cc2C1)c1cc2n(n1)CCC(COCc1cccc(C(F)(F)F)n1)O2 (stereo partly drawn) [Example 105]	> 6.00	–
–	> 6.00	O=C(N[C@H]1COc2ccc(Cl)cc2C1)c1cc2n(n1)CCN(CC(C(F)(F)F)C(F)(F)F)C2 [Example 493]	–	5.52 to 6.00
–	> 5.00	O=C(c1cn2c(n1)CCC(c1cccc(N3CCOCC3)n1)C2)N1CCC(c2ccccc2)C1 (stereo not drawn) [Example 307]	–	5.52 to 6.00
–	> 6.00	COc1ncc(-c2ccc3c(c2)C[C@@H](NC(=O)c2cc4n(n2)CC(CCOCC2CC2)O4)CO3)cn1 (mixture of isomers) [Example 203, 2-(2-(cyclopropylmethoxy)ethyl)-N—((R)-6-(2-methoxypyrimidin-5-yl)chroman-3-yl)-2,3-dihydropyrazolo[5,1-b]oxazole-6-carboxamide]	–	≤ 5.52
> 5.00	–	O=C(N[C@H]1COc2ccccc2C1)c1nc2n(c1I)CC(C(F)(F)F)CC2 (stereo partly drawn) [Example 14, N—((R)-chroman-3-yl)-3-iodo-6-(trifluoromethyl)-5,6,7,8-tetrahydroimidazo[1,2-a]pyridine-2-carboxamide]	≤ 5.52	–
–	> 5.00	O=C(c1cc2n(n1)CCC(c1ccccc1)O2)N1CCC(c2cccc(C(F)(F)F)c2)C1 (stereo not drawn) [Example 350]	–	≤ 5.52
–	> 6.00	O=C(N[C@H]1COc2ccc(C(F)(F)F)cc2C1O)c1cc2n(n1)CC(CCCOCC(F)F)O2 (single isomer, unassigned) [608 (isomer A)]	–	≤ 5.52
–	> 5.00	Cn1ccc(-c2ccc3c(c2)C[C@@H](NC(=O)c2cc4n(n2)CC(CCOCC(F)(F)F)O4)CO3)n1 (stereo partly drawn) [Example 205]	–	≤ 5.52
–	> 6.00	O=C(N[C@H]1COc2ccc(Cl)cc2C1)c1cc2n(n1)CCC(CN1CCC(F)(F)C1)O2 (single isomer, unassigned) [153 (isomer A)]	–	5.52 to 6.00
–	> 6.00	O=C(N[C@H]1COc2ccc(CCOC(F)F)cc2C1)c1cc2n(n1)CCC(COC(F)F)O2 (stereo partly drawn) [Example 141]	–	≤ 5.52
–	–	O=C(N[C@H]1COc2ccc(Cl)cc2C1)c1cc2n(n1)CCC(CNCC(F)(F)F)O2 (single isomer, unassigned) [152 (isomer B)]	–	≤ 5.52
–	–	O=C(N[C@H]1COc2ccc(CC(F)F)cc2C1)c1cc2n(n1)CC(CCOC(F)(F)F)O2 (single isomer, unassigned) [211 (isomer B)]	–	> 6.00
–	–	O=C(N[C@H]1COc2ccc(CC(F)F)cc2C1)c1cc2n(n1)CCC(COCC(F)(F)F)O2 (single isomer, unassigned) [127 (isomer B)]	≤ 5.52	–
–	–	O=C(N[C@H]1COc2ccc(Br)cc2C1)c1cc2n(n1)CC(C(F)(F)F)O2 (stereo partly drawn) [Example 445]	–	≤ 5.52
–	–	O=C(N[C@H]1COc2ccc(COCC(F)(F)F)cc2C1)c1cc2n(n1)CCC(CCOC(F)F)O2 (single isomer, unassigned) [150 (isomer B)]	–	5.52 to 6.00
–	–	Cn1ccc(-c2ccc3c(c2)C[C@@H](NC(=O)c2cc4n(n2)CC(CCOCC(F)(F)F)O4)CO3)n1 (single isomer, unassigned) [206 (isomer B)]	–	≤ 5.52
–	–	O=C(N[C@H]1COc2ccc(C(F)(F)F)cc2C1)c1cc2n(n1)CCC(OCC(F)(F)F)CO2 (single isomer, unassigned) [257 (isomer B)]	–	≤ 5.52
–	–	O=C(N[C@H]1COc2ccc(-c3ccccn3)cc2C1)c1cc2n(n1)CCC(COCC1CC1)O2 (single isomer, unassigned) [111 (isomer B)]	5.52 to 6.00	–
–	–	N#Cc1ccc2c(c1)C[C@@H](NC(=O)c1cc3n(n1)CCC(CC1CC1)O3)CO2 (single isomer, unassigned) [97 (isomer B)]	≤ 5.52	–
–	–	O=C(N[C@H]1COc2ccc(CC(F)F)cc2C1)c1cc2n(n1)CCC(CCOC(F)F)O2 (single isomer, unassigned) [148 (isomer B)]	–	≤ 5.52
–	–	N#Cc1ccc2c(c1)C[C@@H](NC(=O)c1cc3n(n1)CC(CCCOC(F)(F)F)O3)CO2 (single isomer, unassigned) [247 (isomer B)]	–	5.52 to 6.00
–	–	CCCC1CCn2nc(C(=O)N[C@H]3COc4ccc(C#N)cc4C3)cc2O1 (single isomer, unassigned) [95 (isomer B)]	≤ 5.52	–
